Measurements from patent US20230372498A1, “PLK1 SELECTIVE DEGRADATION INDUCING COMPOUND” (UPPTHERA, priority 2020, published 2023).

Biological target: T1, PLK1 (Homo sapiens, UniProt P53350)
T1 construct: endogenous in cells; host or cells: HeLa
Assay: PLK1 protein degradation in HeLa cells, Western blotting (PLK1/GAPDH ratio)
Format: cell-based
Details: 6 hours compound incubation; for DC50: measured only if the grade of Dmax is A or B; for Dmax: thymidine block and release, 10 points three-fold from 3 μM, PLK1 to GAPDH ratio, read-out: Dmax
Method in brief: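 PLK1 level measured by Western blot as PLK1/GAPDH in HeLa lysates (15 μg protein per lane). Cells were blocked with 2 mM thymidine 24 h, released 4 h, and exposed 6 h to compound, 10 concentrations, 3-fold steps, top 3 μM.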

T1 sequence (P53350 whole entry): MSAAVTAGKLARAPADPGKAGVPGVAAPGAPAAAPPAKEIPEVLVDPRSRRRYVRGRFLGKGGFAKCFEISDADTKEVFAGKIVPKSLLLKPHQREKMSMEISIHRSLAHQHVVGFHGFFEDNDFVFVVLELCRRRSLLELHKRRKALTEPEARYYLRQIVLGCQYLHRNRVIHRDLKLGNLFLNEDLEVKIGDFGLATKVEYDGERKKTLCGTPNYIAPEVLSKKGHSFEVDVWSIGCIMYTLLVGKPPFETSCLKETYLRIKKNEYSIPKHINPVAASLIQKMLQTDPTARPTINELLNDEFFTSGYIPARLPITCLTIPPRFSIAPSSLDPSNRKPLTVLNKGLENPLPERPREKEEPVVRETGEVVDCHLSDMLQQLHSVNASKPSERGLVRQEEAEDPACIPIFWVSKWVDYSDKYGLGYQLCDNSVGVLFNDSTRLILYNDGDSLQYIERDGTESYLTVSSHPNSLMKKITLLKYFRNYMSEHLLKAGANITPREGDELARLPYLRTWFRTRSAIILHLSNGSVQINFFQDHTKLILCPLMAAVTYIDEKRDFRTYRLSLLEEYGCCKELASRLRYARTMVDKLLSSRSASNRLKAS

| DC50 [nM] | Dmax [%] | SMILES |
| --- | --- | --- |
| ≤ 50 | ≥ 80 | COc1cc(C(=O)NC2CCN(CCOCCOCCNc3cccc4c3CN(C3CCC(=O)NC3=O)C4=O)CC2)c(F)cc1Nc1ncc2c(n1)N(C1CCCC1)CC(F)(F)C(=O)N2C (centres unmarked) [Compound 75, 4-((9-cyclopentyl-7,7-difluoro-5-methyl-6-oxo-6,7,8,9-tetrahydro-5H-pyrimido[4,5-b][1,4]diazepin-2-yl)amino)-N-(1-(2-(2-(2-((2-(2,6-dioxopiperidin-3-yl)-1-oxoisoindolin-4-yl)amino)ethoxy)ethoxy)ethyl)piperidin-4-yl)-2-fluoro-5-methoxybenzamide] |
| ≤ 500 | 60 to 80 | COc1cc(C(=O)NC2CCN(CCOCCOCCOCCOCCNc3cccc4c3CN(C3CCC(=O)NC3=O)C4=O)CC2)c(F)cc1Nc1ncc2c(n1)N(C1CCCC1)CC(F)(F)C(=O)N2C (centres unmarked) [Compound 76, 4-((9-cyclopentyl-7,7-difluoro-5-methyl-6-oxo-6,7,8,9-tetrahydro-5H-pyrimido[4,5-b][1,4]diazepin-2-yl)amino)-N-(1-(14-((2-(2,6-dioxopiperidin-3-yl)-1-oxoisoindolin-4-yl)amino)-3,6,9,12-tetraoxatetradecyl)piperidin-4-yl)-2-fluoro-5-methoxybenzamide] |
| ≤ 500 | 60 to 80 | COc1cc(C(=O)NC2CCN(CCCCCCCCNc3cccc4c3CN(C3CCC(=O)NC3=O)C4=O)CC2)c(F)cc1Nc1ncc2c(n1)N(C1CCCC1)CC(F)(F)C(=O)N2C (centres unmarked) [Compound 77, 4-((9-cyclopentyl-7,7-difluoro-5-methyl-6-oxo-6,7,8,9-tetrahydro-5H-pyrimido[4,5-b][1,4]diazepin-2-yl)amino)-N-(1-(8-((2-(2,6-dioxopiperidin-3-yl)-1-oxoisoindolin-4-yl)amino)octyl)piperidin-4-yl)-2-fluoro-5-methoxybenzamide] |
| ≤ 50 | ≥ 80 | COc1cc(C(=O)NC2CCN(CCOCCOCCOCCOCCNc3cccc4nnn(C5CCC(=O)NC5=O)c(=O)c34)CC2)c(F)cc1Nc1ncc2c(n1)N(C1CCCC1)CC(F)(F)C(=O)N2C (centres unmarked) [Compound 78, 4-((9-cyclopentyl-7,7-difluoro-5-methyl-6-oxo-6,7,8,9-tetrahydro-5H-pyrimido[4,5-b][1,4]diazepin-2-yl)amino)-N-(1-(14-((3-(2,6-dioxopiperidin-3-yl)-4-oxo-3,4-dihydrobenzo[d][1,2,3]triazin-5-yl)amino)-3,6,9,12-tetraoxatetradecyl)piperidin-4-yl)-2-fluoro-5-methoxybenzamide] |
| ≤ 50 | ≥ 80 | COc1cc(C(=O)NC2CCN(CCCCCCCCNc3cccc4nnn(C5CCC(=O)NC5=O)c(=O)c34)CC2)c(F)cc1Nc1ncc2c(n1)N(C1CCCC1)CC(F)(F)C(=O)N2C (centres unmarked) [Compound 79, 4-((9-cyclopentyl-7,7-difluoro-5-methyl-6-oxo-6,7,8,9-tetrahydro-5H-pyrimido[4,5-b][1,4]diazepin-2-yl)amino)-N-(1-(8-((3-(2,6-dioxopiperidin-3-yl)-4-oxo-3,4-dihydrobenzo[d][1,2,3]triazin-5-yl)amino)octyl)piperidin-4-yl)-2-fluoro-5-methoxybenzamide] |
|  | < 60 | COc1cc(C(=O)NC2CCN(CCOCCOCC(=O)N[C@H](C(=O)N3C[C@H](O)C[C@H]3C(=O)NCc3ccc(-c4scnc4C)cc3)C(C)(C)C)CC2)c(F)cc1Nc1ncc2c(n1)N(C1CCCC1)CC(F)(F)C(=O)N2C [Compound 80] |
|  | < 60 | COc1cc(C(=O)NC2CCN(CCOCCOCCOCC(=O)N[C@H](C(=O)N3C[C@H](O)C[C@H]3C(=O)NCc3ccc(-c4scnc4C)cc3)C(C)(C)C)CC2)c(F)cc1Nc1ncc2c(n1)N(C1CCCC1)CC(F)(F)C(=O)N2C [Compound 81] |
|  | < 60 | COc1cc(C(=O)N[C@H]2CCN(C(=O)CCNC(=O)CNc3cccc4c3C(=O)N(C3CCC(=O)NC3=O)C4=O)C2)c(F)cc1Nc1ncc2c(n1)N(C1CCCC1)CC(F)(F)C(=O)N2C (stereo partly drawn) [Compound 113, 4-((9-cyclopentyl-7,7-difluoro-5-methyl-6-oxo-6,7,8,9-tetrahydro-5H-pyrimido[4,5-b][1,4]diazepin-2-yl)amino)-N-((3S)-1-(3-(2-((2-(2,6-dioxopiperidin-3-yl)-1,3-dioxoisoindolin-4-yl)amino)acetamido)propanoyl)pyrrolidin-3-yl)-2-fluoro-5-methoxybenzamide] |
| ≤ 50 | ≥ 80 | COc1cc(C(=O)NC2CCN(C(=O)CCOCCNc3cccc4c3C(=O)N(C3CCC(=O)NC3=O)C4=O)C2)c(F)cc1Nc1ncc2c(n1)N(C1CCCC1)CC(F)(F)C(=O)N2C (centres unmarked) [Compound 114, 4-((9-cyclopentyl-7,7-difluoro-5-methyl-6-oxo-6,7,8,9-tetrahydro-5H-pyrimido[4,5-b][1,4]diazepin-2-yl)amino)-N-(1-(3-(2-((2-(2,6-dioxopiperidin-3-yl)-1,3-dioxoisoindolin-4-yl)amino)ethoxy)propanoyl)pyrrolidin-3-yl)-2-fluoro-5-methoxybenzamide] |
| ≤ 50 | ≥ 80 | COc1cc(C(=O)N[C@H]2CCN(C(=O)COCCOCCNc3cccc4c3C(=O)N(C3CCC(=O)NC3=O)C4=O)C2)c(F)cc1Nc1ncc2c(n1)N(C1CCCC1)CC(F)(F)C(=O)N2C (stereo partly drawn) [Compound 115, 4-((9-cyclopentyl-7,7-difluoro-5-methyl-6-oxo-6,7,8,9-tetrahydro-5H-pyrimido[4,5-b][1,4]diazepin-2-yl)amino)-N-((3S)-1-(2-(2-(2-((2-(2,6-dioxopiperidin-3-yl)-1,3-dioxoisoindolin-4-yl)amino)ethoxy)ethoxy)acetyl)pyrrolidin-3-yl)-2-fluoro-5-methoxybenzamide] |
| ≤ 50 | ≥ 80 | COc1cc(C(=O)N[C@H]2CCN(C(=O)COCCOCCOCCOCCNc3cccc4c3C(=O)N(C3CCC(=O)NC3=O)C4=O)C2)c(F)cc1Nc1ncc2c(n1)N(C1CCCC1)CC(F)(F)C(=O)N2C (stereo partly drawn) [Compound 116, 4-((9-cyclopentyl-7,7-difluoro-5-methyl-6-oxo-6,7,8,9-tetrahydro-5H-pyrimido[4,5-b][1,4]diazepin-2-yl)amino)-N-((3S)-1-(14-((2-(2,6-dioxopiperidin-3-yl)-1,3-dioxoisoindolin-4-yl)amino)-3,6,9,12-tetraoxatetradecanoyl)pyrrolidin-3-yl)-2-fluoro-5-methoxybenzamide] |
| ≤ 50 | ≥ 80 | COc1cc(C(=O)NC2CCN(C(=O)CCCCNc3cccc4c3C(=O)N(C3CCC(=O)NC3=O)C4=O)C2)c(F)cc1Nc1ncc2c(n1)N(C1CCCC1)CC(F)(F)C(=O)N2C (centres unmarked) [Compound 117, 4-((9-cyclopentyl-7,7-difluoro-5-methyl-6-oxo-6,7,8,9-tetrahydro-5H-pyrimido[4,5-b][1,4]diazepin-2-yl)amino)-N-(1-(5-((2-(2,6-dioxopiperidin-3-yl)-1,3-dioxoisoindolin-4-yl)amino)pentanoyl)pyrrolidin-3-yl)-2-fluoro-5-methoxybenzamide] |
| ≤ 50 | ≥ 80 | COc1cc(C(=O)NC2CCN(C(=O)CCCCCNc3cccc4c3C(=O)N(C3CCC(=O)NC3=O)C4=O)C2)c(F)cc1Nc1ncc2c(n1)N(C1CCCC1)CC(F)(F)C(=O)N2C (centres unmarked) [Compound 118, 4-((9-cyclopentyl-7,7-difluoro-5-methyl-6-oxo-6,7,8,9-tetrahydro-5H-pyrimido[4,5-b][1,4]diazepin-2-yl)amino)-N-(1-(6-((2-(2,6-dioxopiperidin-3-yl)-1,3-dioxoisoindolin-4-yl)amino)hexanoyl)pyrrolidin-3-yl)-2-fluoro-5-methoxybenzamide] |
